In this assay the target is DNA gyrase A/A/B/B tetramer (Escherichia coli (strain K12), UniProt P0AES4+P0AES6). The experiment in a line: In vitro antibacterial activity was determined as inhibitory concentration causing 50% DNA-gyrase supercoiling inhibition (SCI).

Consider one compound from BindingDB's records for doi:10.7270/Q2FX7CM7 (n/a, 1993).

By IC50 is commonly meant the point on the concentration scale where inhibition reaches its midpoint.

`C[C@H]1COc2c(N3CCN(C)CC3)c(F)cc3c(=O)c(C(=O)O)cn1c23` [9-fluoro-3-methyl-10-(4-methylpiperazin-1-yl)-7-oxo-2,3-dihydro-7H-[1,4]oxazino[2,3,4-ij]quinoline-6-carboxylic acid] showed an IC50 of 4.98 µM.
